{
  "source": "patent US11441122B2",
  "about": "“Regulatory T cell epitopes” (EpiVax, Inc., priority 2017, dated 2022)",
  "key": {"[1]": {"test_system": "Class II HLA alleles", "experiment": "Soluble HLA competition binding assay, panel of five alleles (summary statements)", "set-up": "species or system human", "experimental": "HLA Binding Assay. Binding activity was analyzed at EpiVax (Providence, R.I.). The binding assay used (Steere A C et al., (2006), J Exp Med, 2003(4):961-71) yielded an indirect measure of peptide-MHC affinity. Soluble HLA molecules were loaded onto a 96-well plate with the unlabeled experimental Tregitopes and labeled control peptide. Once the binding mixture reached steady equilibrium (at 24 hours), the HLA-Tregitope complexes were captured on an ELISA plate coated with anti-human DR antibody and detected with a Europium-linked probe for the label (PerkinElmer, Waltham, Mass.). Time-resolved fluorescence measuring bound labeled control peptide is assessed by a SpectraMax® M5 unit (Spectramax, Radnor, Pa.). Binding of experimental Tregitopes was expressed as the percent inhibition of the labeled control peptide (experimental fluorescence/control fluorescence multiplied by 100).\nThe experimental Tregitopes were solvated in DMSO. The diluted Tregitopes were then mixed with binding reagents in aqueous buffering solution, yielding a range of final concentrations from 100,000 nM down to 100 nM. Tregitopes were then assayed against a panel of five common Class II HLA alleles: HLA-DRB1*0101, HLA-DRB1*0301, HLA-DRB1*0701, HLA-DRB1*1101, and HLA-DRB1*1501. […]"}, "[2]": {"test_system": "CD4+ effector memory T cells", "format": "cell-based, human"}, "[3]": {"test_system": "CD4+CD25+ FoxP3+ regulatory T cells", "format": "cell-based, human"}, "[4]": {"test_system": "T cells in PBMCs from lupus patients", "details": "cited from earlier work"}},
  "note": "Values joined by “and” are separate entries in the source; they are usually repeats but may differ in a detail not shown here. Equal entries are not always repeated.",
  "data": [
    {"sequence": "EKDIHSGLIGPLLI (listed as Homo sapiens) [SEQ ID NO: 6]", "values": [
      {"measurement": "HLA binding profile", "setting": "[1]", "result": "highly-restricted HLA binding profiles"}
    ]},
    {"sequence": "FAVFDENKSWYLEDN (listed as Homo sapiens) [SEQ ID NO: 4]", "values": [
      {"measurement": "HLA binding profile", "setting": "[1]", "result": "highly-restricted HLA binding profiles"}
    ]},
    {"sequence": "IHSIHFSGHVFTVRK (listed as Homo sapiens) [SEQ ID NO: 2]", "values": [
      {"measurement": "CD4+ T cell activation and proliferation of Teff responding to TT", "setting": "[2]", "result": "inhibited both CD4+ T cell memory responses"},
      {"measurement": "CD4+ T cell activation reduced by", "setting": "[2]", "result": "70% and 50%"}
    ]},
    {"sequence": "KIVFKNMASRPYSIY (listed as Homo sapiens) [SEQ ID NO: 3, Factor V derived peptide, used as negative control peptide]", "values": [
      {"measurement": "relative proportion of highly proliferative regulatory T cells (CFSE low FoxP3+) among CD25+ Granzyme B+ CD4+ T cells", "setting": "[3]", "result": "no significant effect"},
      {"measurement": "activated (CD25 high) proliferating (CFSE low) CD4 T cells stimulated by Tetanus Toxoid", "setting": "[2]", "result": "no significant inhibitory effect"},
      {"measurement": "activated effector CD4+ T cells (CD4+/CD25-high/FoxP3-intermediate) reacting to Tetanus Toxoid", "setting": "[2]", "result": "no appreciable effect"},
      {"measurement": "proliferation of CD4- cell population", "setting": "[2]", "result": "little inhibitory effect"},
      {"measurement": "proliferation of total CD4+ T cells (CFSE low)", "setting": "[2]", "result": "little to no effect"}
    ]},
    {"sequence": "RIHMVYSKRSGKPRGYAFIEY (listed as Homo sapiens) [peptide 131-151]", "values": [
      {"measurement": "randomly selected lupus patients whose PBMCs contain T cells that proliferate in response to the peptide", "setting": "[4]", "result": 40, "unit": "%"}
    ]}
  ]
}
